The structures appear in SMILES notation.

The target in one experiment is T1, sGC α1/β1 heterodimer (Homo sapiens, UniProt Q02108+Q02153).
T1 construct: expressed in transfected cells; host or cells: CHO-K1 (clone #7, CHO-K1/sGC)
T1 sequence (Q02108 1-690): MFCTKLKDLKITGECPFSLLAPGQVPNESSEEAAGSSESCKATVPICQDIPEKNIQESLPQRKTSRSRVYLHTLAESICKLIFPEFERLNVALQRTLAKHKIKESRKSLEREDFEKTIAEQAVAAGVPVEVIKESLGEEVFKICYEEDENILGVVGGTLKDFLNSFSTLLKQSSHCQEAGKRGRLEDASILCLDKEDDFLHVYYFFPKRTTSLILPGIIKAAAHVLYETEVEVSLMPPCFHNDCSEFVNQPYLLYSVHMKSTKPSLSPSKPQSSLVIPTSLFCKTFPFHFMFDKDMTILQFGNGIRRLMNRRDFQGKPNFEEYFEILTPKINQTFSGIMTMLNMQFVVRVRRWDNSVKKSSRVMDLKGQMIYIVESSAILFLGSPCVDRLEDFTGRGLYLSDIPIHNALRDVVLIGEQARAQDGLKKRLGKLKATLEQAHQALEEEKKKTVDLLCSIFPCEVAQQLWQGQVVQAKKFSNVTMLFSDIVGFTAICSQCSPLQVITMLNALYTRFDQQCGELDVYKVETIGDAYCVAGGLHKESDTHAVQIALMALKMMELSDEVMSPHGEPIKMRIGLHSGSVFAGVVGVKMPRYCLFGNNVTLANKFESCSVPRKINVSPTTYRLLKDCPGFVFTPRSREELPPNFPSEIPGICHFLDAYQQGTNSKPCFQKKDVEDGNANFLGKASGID
T1 sequence (Q02153 1-619): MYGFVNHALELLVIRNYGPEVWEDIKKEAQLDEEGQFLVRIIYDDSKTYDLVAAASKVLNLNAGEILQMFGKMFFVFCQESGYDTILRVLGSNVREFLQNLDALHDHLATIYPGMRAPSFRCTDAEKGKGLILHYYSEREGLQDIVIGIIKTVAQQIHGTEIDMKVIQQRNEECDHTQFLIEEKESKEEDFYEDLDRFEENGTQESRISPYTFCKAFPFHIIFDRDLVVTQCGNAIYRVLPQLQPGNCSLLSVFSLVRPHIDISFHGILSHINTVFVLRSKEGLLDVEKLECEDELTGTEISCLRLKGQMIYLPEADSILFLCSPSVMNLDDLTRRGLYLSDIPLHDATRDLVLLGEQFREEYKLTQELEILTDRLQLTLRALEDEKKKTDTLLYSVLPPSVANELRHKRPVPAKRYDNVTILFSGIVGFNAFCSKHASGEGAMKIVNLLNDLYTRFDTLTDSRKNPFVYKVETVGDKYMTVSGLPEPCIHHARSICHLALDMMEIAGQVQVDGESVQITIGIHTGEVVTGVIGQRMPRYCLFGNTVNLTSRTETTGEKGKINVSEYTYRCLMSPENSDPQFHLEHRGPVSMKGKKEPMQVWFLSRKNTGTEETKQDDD
As to the kind of experiment: Cell-Based sGC Functional Assay (CASA Assay), cGMP by HTRF in CHO-K1/sGC cells. The following applies: for Emax: CHO-K1, percent activation relative to maximum cGMP production of Compound A (= 100%), read-out: % Act.; for EC50: cGMP production, 1 hr at 37° C., 4P fit, presence or absence of 1 μM DETA-NO not given, read-out: IP (nM) (inflection point). The method in brief: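 CHO-K1 cells stably expressing human sGC α1/β1, in EBSS buffer with 5 mM MgCl2, 10 mM HEPES, 0.05% BSA and 0.5 mM IBMX, incubated with compound (2.5% DMSO) ± 1 μM DETA-NO, 1 h, 37 °C. Intracellular cGMP read by HTRF; activity as % of reference activator maximum, IP from 4-parameter fit.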
In general terms: In TR-FRET formats the signal depends on donor and acceptor labels being close together.

The subject of experiment [1] is Spontaneously hypertensive rats (SHR). As to the kind of experiment: Acute Efficacy in Spontaneously Hypertensive Rats (SHR), telemetry blood pressure. Format: in vivo, rat. Conditions: SHR male. An excerpt: Acute Efficacy in Spontaneously Hypertensive Rats (SHR)
Spontaneously hypertensive rats (SHR, male, Charles River) were implanted with DSI TA11PA-C40 telemetry device (Data Sciences, Inc., St. Paul, Minn.) under isoflurane or ketamine/metomidine anesthesia. The telemetry unit catheter was inserted into the descending aorta via the femoral artery and the telemetry device was implanted subcutaneously in the left flank area. Animals were allowed to recover from surgery for 14 days before the start of any studies. Blood pressure, heart rate, and activity signals from conscious, freely moving rats were recorded continuously for 30 seconds every 10 minutes. On the day prior to administration of compound, a single oral dose of vehicle (10% transcutol/20% Cremophor/70% water) was administered to all animals to establish baseline control data. The blood pressure lowering efficacy of compound (PO) or vehicle was evaluated following a single oral gavage. Data were collected as hourly averages, and changes in blood pressure were calculated by subtracting control baseline data on an hourly basis. Animals were maintained on normal diet with a 12 hour light-dark cycle.
Maximum peak decreases of systolic blood pressure (SBP) in SHR at a particular P.O. dose (mpk milligrams per kilogram) for the following representative compounds are provided. • Category A=SBP in SHRs<20 mmHg; Category B=SBP in SHRs 20-40 mmHg; • Category C=SBP in SHRs>40 mmHg

`O=C1Nc2nc(-c3cn4ccnc4c(CCCC(F)(F)F)n3)nc(O)c2C1(c1ccc(Cl)cc1F)C1CC1` (stereo not drawn) [Example 34A, 5-(4-chloro-2-fluorophenyl)-5-cyclopropyl-4-hydroxy-2-(8-(4,4,4-trifluorobutyl)imidazo[1,2-a]pyrazin-6-yl)-5H-pyrrolo[2,3-d]pyrimidin-6(7H)-one]: on sGC α1/β1 heterodimer, the Emax was found to be 124% and the EC50 is 102 nM. Besides, the “Cat. (maximum peak decrease of systolic blood pressure (SBP) in SHR)” value in experiment [1] (single oral dose 3.0 mpk P.O.) is recorded as “B (Category B=SBP in SHRs 20-40 mmHg)”.
Turning to `O=C1Nc2nc(-c3cn4ccnc4c(CCCC(F)(F)F)n3)ncc2C1(c1ccc(Cl)cc1)C1CC1` (stereo not drawn) [Example 50B, 5-(4-chlorophenyl)-5-cyclopropyl-2-(8-(4,4,4-trifluorobutyl)imidazo[1,2-a]pyrazin-6-yl)-5H-pyrrolo[2,3-d]pyrimidin-6(7H)-one], on sGC α1/β1 heterodimer, the Emax is 155% and the EC50 worked out at 63 nM. The “Cat. (maximum peak decrease of systolic blood pressure (SBP) in SHR)” value in experiment [1] (single oral dose 1.0 mpk P.O.) was “B (Category B=SBP in SHRs 20-40 mmHg)”.
Regarding `CC1(c2ccc(Cl)cn2)C(=O)Nc2nc(-c3cn4ccnc4c(CC4CCC4)n3)nc(O)c21` (stereo not drawn) [Example 27A, 5-(5-chloropyridin-2-yl)-2-(8-(cyclobutylmethyl)imidazo [1,2-a]pyrazin-6-yl)-4-hydroxy-5-methyl-5H-pyrrolo[2,3-d]pyrimidin-6(7H)-one], at sGC α1/β1 heterodimer, the Emax is 95% and the EC50 stood at 645 nM. For the same molecule, the “Cat. (maximum peak decrease of systolic blood pressure (SBP) in SHR)” value in experiment [1] (single oral dose 3.0 mpk P.O.) is listed as “B (Category B=SBP in SHRs 20-40 mmHg)”.
For the molecule `CC1(c2ccc(Cl)cn2)C(=O)Nc2nc(-c3cn4ccnc4c(CCCC(F)(F)F)n3)ncc21` (stereo not drawn) [Example 59A, 5-(5-chloropyridin-2-yl)-5-methyl-2-(8-(4,4,4-trifluorobutyl)imidazo[1,2-a]pyrazin-6-yl)-5H-pyrrolo[2,3-d]pyrimidin-6(7H)-one], at sGC α1/β1 heterodimer, the Emax amounted to 91% and the EC50 turned out to be 68 nM. Moreover, the “Cat. (maximum peak decrease of systolic blood pressure (SBP) in SHR)” value in experiment [1] (single oral dose 1.0 mpk P.O.) is on record as “B (Category B=SBP in SHRs 20-40 mmHg)”.
For the molecule `CC1(c2ccc(Cl)cc2)C(=O)Nc2nc(-c3cn4ccnc4c(CCCC(F)(F)F)n3)nc(O)c21` (stereo not drawn) [Example 26A, 5-(4-chlorophenyl)-4-hydroxy-5-methyl-2-(8-(4,4,4-trifluorobutyl)imidazo[1,2-a]pyrazin-6-yl)-5H-pyrrolo[2,3-d]pyrimidin-6(7H)-one], at sGC α1/β1 heterodimer, the Emax amounted to 90% and the EC50 turned out to be 200 nM. Moreover, the “Cat. (maximum peak decrease of systolic blood pressure (SBP) in SHR)” value in experiment [1] (single oral dose 3.0 mpk P.O.) is “C (Category C=SBP in SHRs>40 mmHg)”.
Regarding `CC1(c2ccc(F)cc2)C(=O)Nc2nc(-c3cn4ccnc4c(OCCC4CC4)n3)nc(O)c21` (stereo not drawn) [Example 93A, 2-(8-(2-Cyclopropylethoxy)imidazo[1,2-a]pyrazin-6-yl)-5-(4-fluorophenyl)-4-hydroxy-5-methyl-5H-pyrrolo[2,3-d]pyrimidin-6(7H)-one], at sGC α1/β1 heterodimer, the Emax amounted to 86% and the EC50 amounted to 163 nM. The “Cat. (maximum peak decrease of systolic blood pressure (SBP) in SHR)” value in experiment [1] (single oral dose 1.0 mpk P.O.) is recorded as “A (Category A=SBP in SHRs<20 mmHg)”.
On to `CCCCc1nc(-c2ncc3c(n2)NC(=O)C3(c2ccc(Cl)cn2)C2CC2)cn2ccnc12` (stereo not drawn) [Example 55A, 2-(8-butylimidazo[1,2-a]pyrazin-6-yl)-5-(5-chloropyridin-2-yl)-5-cyclopropyl-5H-pyrrolo[2,3-d]pyrimidin-6(7H)-one], for which, at sGC α1/β1 heterodimer, the Emax came out at 188% and the EC50 is 73 nM. Further, the “Cat. (maximum peak decrease of systolic blood pressure (SBP) in SHR)” value in experiment [1] (single oral dose 2.0 mpk P.O.) was “B (Category B=SBP in SHRs 20-40 mmHg)”.
For `CC1(c2ccc(Cl)cn2)C(=O)Nc2nc(-c3cn4ccnc4c(CCCC(F)(F)F)n3)nc(O)c21` (stereo not drawn) [Example 28A, 5-(5-chloropyridin-2-yl)-4-hydroxy-5-methyl-2-(8-(4,4,4-trifluorobutyl)imidazo[1,2-a]pyrazin-6-yl)-5H-pyrrolo[2,3-d]pyrimidin-6(7H)-one], on sGC α1/β1 heterodimer, the Emax was determined as 95% and the EC50 was determined as 245 nM. Further, the “Cat. (maximum peak decrease of systolic blood pressure (SBP) in SHR)” value in experiment [1] (single oral dose 1.0 mpk P.O.) is on record as “A (Category A=SBP in SHRs<20 mmHg)”.
On to `O=C1Nc2nc(-c3cn4ccnc4c(CCCC(F)(F)F)n3)nc(O)c2C1(c1ccc(Cl)cc1)C1CC1` (stereo not drawn) [Example 24B, 5-(4-chlorophenyl)-5-cyclopropyl-4-hydroxy-2-(8-(4,4,4-trifluorobutyl)imidazo[1,2-a]pyrazin-6-yl)-5H-pyrrolo[2,3-d]pyrimidin-6(7H)-one], for which, on sGC α1/β1 heterodimer, the Emax was 169% and the EC50 turned out to be 106 nM. Moreover, the “Cat. (maximum peak decrease of systolic blood pressure (SBP) in SHR)” value in experiment [1] (single oral dose 3.0 mpk P.O.) is recorded as “A (Category A=SBP in SHRs<20 mmHg)”.
Turning to `O=C1Nc2nc(-c3cn4ccnc4c(CCC(F)(F)C(F)(F)F)n3)nc(O)c2C1(c1ccc(F)cc1)C1CC1` (stereo not drawn) [Example 12B, 5-cyclopropyl-5-(4-fluorophenyl)-4-hydroxy-2-(8-(3,3,4,4,4-pentafluorobutyl)imidazo[1,2-a]pyrazin-6-yl)-5H-pyrrolo[2,3-d]pyrimidin-6(7H)-one], on sGC α1/β1 heterodimer, the Emax stood at 92% and the EC50 came to 525 nM. The “Cat. (maximum peak decrease of systolic blood pressure (SBP) in SHR)” value in experiment [1] (single oral dose 3.0 mpk P.O.) is reported as “A (Category A=SBP in SHRs<20 mmHg)”.
As for `O=C1Nc2nc(-c3cn4ccnc4c(CCCC(F)(F)F)n3)ncc2C1(c1ccc(Cl)cn1)C1CC1` (stereo not drawn) [Example 9A, 5-(5-chloropyridin-2-yl)-5-cyclopropyl-2-(8-(4,4,4-trifluorobutyl)imidazo[1,2-a]pyrazin-6-yl)-5H-pyrrolo[2,3-d]pyrimidin-6(7H)-one], on sGC α1/β1 heterodimer, the Emax turned out to be 120% and the EC50 stood at 74 nM. In addition, the “Cat. (maximum peak decrease of systolic blood pressure (SBP) in SHR)” value in experiment [1] (single oral dose 2.0 mpk P.O.) was “B (Category B=SBP in SHRs 20-40 mmHg)”.
For the molecule `O=C1Nc2nc(-c3cn4ccnc4c(Cc4ccc(F)cc4)n3)ncc2C1(C(=O)NC1CC1)C1CC1` (single isomer, unassigned) [Example 68B, N,5-dicyclopropyl-2-(8-(4-fluorobenzyl)imidazo[1,2-a]pyrazin-6-yl)-6-oxo-6,7-dihydro-5H-pyrrolo[2,3-d]pyrimidine-5-carboxamide], at sGC α1/β1 heterodimer, the EC50 came to 83 nM. For the same molecule, the “% Act.” value on sGC α1/β1 heterodimer (percent activation relative to maximum cGMP production of Compound A (= 100%)) was 120%.
As to `O=C1Nc2nc(-c3cn4ccnc4c(CCCC(F)(F)F)n3)nc(O)c2C1(c1ccc(Cl)cn1)C1CC1` (stereo not drawn) [Example 10A, 5-(5-chloropyridin-2-yl)-5-cyclopropyl-4-hydroxy-2-(8-(4,4,4-trifluorobutyl)imidazo[1,2-a]pyrazin-6-yl)-5H-pyrrolo[2,3-d]pyrimidin-6(7H)-one], at sGC α1/β1 heterodimer, the Emax was 126% and the EC50 is 658 nM.
For `O=C1Nc2nc(-c3cn4ccnc4c(CCCC(F)(F)F)n3)nc(O)c2C1(c1ccc(F)c(F)c1)C1CC1` (stereo not drawn) [Example 20A, 5-cyclopropyl-5-(3,4-difluorophenyl)-4-hydroxy-2-(8-(4,4,4-trifluorobutyl)imidazo[1,2-a]pyrazin-6-yl)-5H-pyrrolo[2,3-d]pyrimidin-6(7H)-one], at sGC α1/β1 heterodimer, the Emax turned out to be 139% and the EC50 was found to be 462 nM.

The record behind these values is patent publication US10213429B2, “Imidazo-pyrazinyl derivatives useful as soluble guanylate cyclase activators” (Merck Sharp & Dohme Corp., priority 2015, dated 2019).
